In patent EP3046573B1, “AMYLIN ANALOGUES” (Zealand Pharma A/S, priority 2013, dated 2015):
Numbered stars: 1 amine (or outer) side, 2 acyl side, 3 side chain; on linkers, the order of the positions; unused ones are H or OH. Bridge positions count the residues as written; N and C are the ends. Square brackets hold non-standard residues; d marks the D form. Peptide text beside a SMILES is read from it. * marks the point of attachment. C20 diacid = O=C(O)CCCCCCCCCCCCCCCCCCC(=O)*; γGlu = O=C(O)[C@H](CCC(=O)[*:2])N[*:1]; Hyp = O=C(O)[C@@H]1C[C@@H](O)CN1; NMeI = CC[C@H](C)[C@H](NC)C(=O)O; Sar = CNCC(=O)O

Assay: Pharmacokinetic (PK) profiling in rats
Type: in vivo
Settings: male, Sprague Dawley, rat, plasma, single sc bolus, 100 nmol/kg (18, NN96), 20 nmol/kg (72, 76), 30 nmol/kg (73, 82, 118, 162, 166, 172); for CL/F: apparent clearance; for half-life: terminal elimination half-life, read-out: t½ (converted)
Procedure: Sprague Dawley male rats were given a single subcutaneous (sc) bolus of each peptide to be tested at doses as specified below..
Study A: Following the administration of a 100 nmol/kg dose of a test peptide of the invention (Compound 18) and a comparison pramlintide analogue NN96 (see Example 5, above), respectively, blood samples were drawn from the tail vein at 0.5, 3, 8, 15, 36, 60 and 81 hours post-dosing. 4 rats were used (2 rats per compound). The rats were euthanized immediately after the last blood sampling by overdose of O2/CO2.
Study B: 20 nmol/kg doses of Compound 72 and Compound 76, respectively, of the invention were administered. Blood samples were drawn by sublingual bleeding prior to dosing and at 2, 6, 12, 24, 48, 72 and 96 hours after dosing. 4 rats were used (2 rats per compound). The rats were euthanized immediately after the last blood sampling by overdose of O2/CO2.
Study C: 30 nmol/kg doses of Compound 73, Compound 82 and Compound 118, respectively, of the invention were administered. Blood samples were drawn from the tail vein prior to dosing and at 24, 48, 72 and 96 hours after dosing. Blood samples were taken from two rats at each time point, and only 2 blood samples were drawn from each rat, i.e. 8 rats were used for each compound. The rats were euthanized immediately after the last blood sampling by concussion and cervical dislocation.
Study D: 30 nmol/kg doses of Compound 162, Compound 166 and Compound 172 were administered. Blood samples were drawn from the tail vein prior to dosing and at 24, 48, 72, 96 and 168 hours after dosing. Blood samples were taken from two rats at each time point, and only 2 blood samples were drawn from each rat, i.e. 10 rats were used for each compound. The rats were euthanized immediately after the last blood sampling by concussion and cervical dislocation.
The dosing vehicle used for each test peptide was a mannitol-containing histidine buffer (pH 7.0). Plasma samples were analyzed after precipitation with ethanol by liquid chromatography mass spectrometry (LC-MS/MS). Mean plasma concentrations were used for calculation of the pharmacokinetic parameters using the non-compartmental approach in Phoenix WinNonlin 6.3.
Plasma terminal elimination half-life (t½) was determined as In(2)/λz, where λz is the magnitude of the slope of the log linear regression of the log concentration versus time profile during the terminal phase. Apparent clearance (CL/F) was determined as dose/AUCinf (sc), where AUCinf is the area under the plasma concentration vs. time curve extrapolated to infinity (AUCinf = AUClast + Clast/λz, where Clast is the last observed plasma concentration).

| SMILES | CL/F | half-life |
| --- | --- | --- |
| CC[C@H](C)[C@@H](C(=O)N[C@@H](CC(C)C)C(=O)N[C@@H](CO)C(=O)N[C@@H](CO)C(=O)N[C@H](C(=O)N[C@@H](CCC(=O)O)C(=O)N[C@H](C(=O)NCC(=O)N[C@@H](CO)C(=O)N[C@@H](CCC(=O)O)C(=O)N[C@H](C(=O)N1C[C@H](O)C[C@H]1C(N)=O)[C@@H](C)O)C(C)C)[C@@H](C)O)N(C)C(=O)[C@H](C)NC(=O)CN(C)C(=O)[C@H](Cc1ccccc1)NC(=O)[C@H](CO)NC(=O)[C@H](CO)NC(=O)[C@H](CCCNC(=N)N)NC(=O)[C@H](Cc1c[nH]cn1)NC(=O)[C@H](CC(C)C)NC(=O)[C@H](Cc1ccccc1)NC(=O)[C@H](CCC(=O)O)NC(=O)[C@H](C)NC(=O)[C@H](CC(C)C)NC(=O)[C@H](CCCNC(=N)N)NC(=O)[C@H](CCC(=O)O)NC(=O)[C@@H](NC(=O)[C@H](C)NC(=O)[C@@H]1CSSC[C@H](NC(=O)[C@H](CCCNC(=N)N)NC(=O)CC[C@H](NC(=O)CCCCCCCCCCCCCCCCCCC(=O)O)C(=O)O)C(=O)NCC(=O)N[C@@H]([C@@H](C)O)C(=O)N[C@@H](C)C(=O)N[C@@H]([C@@H](C)O)C(=O)N1)[C@@H](C)O [Compound 166, [19CD]-isoGlu-RC()GTATC()ATERLAEFLHRSSF-Gly(Me)-A-Ile(Me)-LSSTEVGSET-Hyp-NH2] ({C20 diacid-γGlu}-RCGTATCATERLAEFLHRSSF[Sar]A[NMeI]LSSTEVGSET[Hyp]-NH2; disulfide 2-7) | 3.79 mL/h/kg | 27.9 h |
| CC[C@H](C)[C@@H](C(=O)N[C@@H](CC(C)C)C(=O)N[C@@H](CO)C(=O)N[C@@H](CO)C(=O)N[C@H](C(=O)N[C@@H](CCC(=O)O)C(=O)N[C@H](C(=O)NCC(=O)N[C@@H](CO)C(=O)N[C@@H](CCC(=O)O)C(=O)N[C@H](C(=O)N1CCC[C@H]1C(N)=O)[C@@H](C)O)C(C)C)[C@@H](C)O)N(C)C(=O)[C@H](C)NC(=O)CN(C)C(=O)[C@H](Cc1ccccc1)NC(=O)[C@H](CO)NC(=O)[C@H](CO)NC(=O)[C@H](CO)NC(=O)[C@H](CO)NC(=O)[C@H](CCCNC(=N)N)NC(=O)[C@H](Cc1c[nH]cn1)NC(=O)[C@H](CC(C)C)NC(=O)[C@H](Cc1ccccc1)NC(=O)[C@H](CCC(=O)O)NC(=O)[C@H](C)NC(=O)[C@H](CC(C)C)NC(=O)[C@H](CCCNC(=N)N)NC(=O)[C@H](C)NC(=O)[C@@H](NC(=O)[C@H](C)NC(=O)[C@@H]1CSSC[C@H](NC(=O)[C@H](CCCNC(=N)N)NC(=O)CC[C@H](NC(=O)CCCCCCCCCCCCCCCCCCC(=O)O)C(=O)O)C(=O)N[C@@H](CC(N)=O)C(=O)N[C@@H]([C@@H](C)O)C(=O)N[C@@H](C)C(=O)N[C@@H]([C@@H](C)O)C(=O)N1)[C@@H](C)O [Compound 118, [19CD]-isoGlu-RC()NTATC()ATARLAEFLHRSSSSF-Gly(Me)-A-Ile(Me)-LSSTEVGSETP-NH2] ({C20 diacid-γGlu}-RCNTATCATARLAEFLHRSSSSF[Sar]A[NMeI]LSSTEVGSETP-NH2; disulfide 2-7) | 3.51 mL/h/kg | 56.4 h |
